# Values joined by “and” are separate entries in the source; they are usually repeats but may differ in a detail not shown here. Identical values can stand only once. Toxic doses and inconclusive results are not listed.
# System: CD2F1 mice, L1210 leukemia ip, survival T/C
# Assay: NCI In Vivo Anticancer Drug Screen. Data for tumor model L1210 Leukemia (intraperitoneal) in CD2F1 (CDF1) mice
# Conditions: higher = longer survival
# Summary of the method: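 Compound-dosed mice with transplantable tumor versus matched vehicle controls; endpoint ratio T/C reported.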
# [1] = endpoint: mean survival time, dose: 100.0 mg/kg/injection, schedule: Q04DX003 (ip), vehicle: saline with Tween-80
# [2] = endpoint: mean survival time, dose: 200.0 mg/kg/injection, schedule: Q04DX003 (ip), vehicle: saline with Tween-80
# [3] = endpoint: mean survival time, dose: 400.0 mg/kg/injection, schedule: Q04DX003 (ip), vehicle: saline with Tween-80
# [4] = endpoint: mean survival time, dose: 100.0 mg/kg/injection, schedule: Q04DX002 (ip), vehicle: saline with Tween-80
# [5] = endpoint: mean survival time, dose: 200.0 mg/kg/injection, schedule: Q04DX002 (ip), vehicle: saline with Tween-80
# [6] = endpoint: mean survival time, dose: 50.0 mg/kg/injection, schedule: Q04DX002 (ip), vehicle: saline with Tween-80
# [7] = endpoint: mean survival time, dose: 100.0 mg/kg/injection, schedule: Q01DX009 (ip), vehicle: saline with Tween-80
# [8] = endpoint: mean survival time, dose: 200.0 mg/kg/injection, schedule: Q01DX009 (ip), vehicle: saline with Tween-80
# [9] = endpoint: mean survival time, dose: 400.0 mg/kg/injection, schedule: Q01DX009 (ip), vehicle: saline with Tween-80
compound,measurement,setting,value
OC(C1CO1)C(O)C1CO1 (centres undefined),T/C,"endpoint: mean survival time, dose: 0.13 mg/kg/injection, schedule: Q03HX008 (ip), vehicle: saline",101 % of control
same,T/C,"endpoint: mean survival time, dose: 0.25 mg/kg/injection, schedule: Q03HX008 (ip), vehicle: saline",105 % of control
same,T/C,"endpoint: mean survival time, dose: 0.25 mg/kg/injection, schedule: Q03HX016 (ip), vehicle: saline",104 % of control
same,T/C,"endpoint: mean survival time, dose: 0.25 mg/kg/injection, schedule: Q03HX024 (ip), vehicle: saline",104 % of control
same,T/C,"endpoint: mean survival time, dose: 0.5 mg/kg/injection, schedule: Q01DX009 (ip), vehicle: saline",117 % of control and 119 % of control and 121 % of control
same,T/C,"endpoint: mean survival time, dose: 0.5 mg/kg/injection, schedule: Q01DX009 (sc), vehicle: saline",104 % of control
same,T/C,"endpoint: mean survival time, dose: 0.5 mg/kg/injection, schedule: Q03HX008 (ip), vehicle: saline",112 % of control
same,T/C,"endpoint: mean survival time, dose: 0.5 mg/kg/injection, schedule: Q03HX016 (ip), vehicle: saline",115 % of control
same,T/C,"endpoint: mean survival time, dose: 1.0 mg/kg/injection, schedule: Q01DX001 (ip), vehicle: saline",98 % of control and 108 % of control
same,T/C,"endpoint: mean survival time, dose: 1.0 mg/kg/injection, schedule: Q01DX001 (sc), vehicle: saline",106 % of control
same,T/C,"endpoint: mean survival time, dose: 1.0 mg/kg/injection, schedule: Q01DX009 (sc), vehicle: saline",114 % of control
same,T/C,"endpoint: mean survival time, dose: 1.0 mg/kg/injection, schedule: Q03HX024 (ip), vehicle: saline",177 % of control
same,T/C,"endpoint: mean survival time, dose: 1.0 mg/kg/injection, schedule: Q04DX003 (ip), vehicle: saline",107 % of control
same,T/C,"endpoint: mean survival time, dose: 1.4 mg/kg/injection, schedule: Q04DX003 (ip), vehicle: saline",96 % of control
same,T/C,"endpoint: mean survival time, dose: 2.0 mg/kg/injection, schedule: Q01DX001 (ip), vehicle: saline",116 % of control and 111 % of control
same,T/C,"endpoint: mean survival time, dose: 2.0 mg/kg/injection, schedule: Q01DX001 (sc), vehicle: saline",111 % of control
same,T/C,"endpoint: mean survival time, dose: 2.0 mg/kg/injection, schedule: Q03HX008 (ip), vehicle: saline",171 % of control
same,T/C,"endpoint: mean survival time, dose: 2.0 mg/kg/injection, schedule: Q03HX016 (ip), vehicle: saline",201 % of control
same,T/C,"endpoint: mean survival time, dose: 2.0 mg/kg/injection, schedule: Q03HX024 (ip), vehicle: saline",109 % of control
same,T/C,"endpoint: mean survival time, dose: 2.0 mg/kg/injection, schedule: Q04DX003 (ip), vehicle: saline",123 % of control and 104 % of control and 112 % of control
same,T/C,"endpoint: mean survival time, dose: 2.0 mg/kg/injection, schedule: Q08DX002 (ip), vehicle: saline",118 % of control
same,T/C,"endpoint: mean survival time, dose: 3.0 mg/kg/injection, schedule: Q01DX009 (ip), vehicle: saline",192 % of control
same,T/C,"endpoint: mean survival time, dose: 3.0 mg/kg/injection, schedule: Q04DX003 (ip), vehicle: saline",119 % of control
same,T/C,"endpoint: mean survival time, dose: 4.0 mg/kg/injection, schedule: Q01DX001 (ip), vehicle: saline",115 % of control and 121 % of control
same,T/C,"endpoint: mean survival time, dose: 4.0 mg/kg/injection, schedule: Q01DX001 (sc), vehicle: saline",112 % of control
same,T/C,"endpoint: mean survival time, dose: 4.0 mg/kg/injection, schedule: Q01DX009 (ip), vehicle: saline",204 % of control and 247 % of control
same,T/C,"endpoint: mean survival time, dose: 4.0 mg/kg/injection, schedule: Q01DX009 (sc), vehicle: saline",163 % of control
same,T/C,"endpoint: mean survival time, dose: 4.6 mg/kg/injection, schedule: Q01DX009 (ip), vehicle: saline",182 % of control
same,T/C,"endpoint: mean survival time, dose: 4.6 mg/kg/injection, schedule: Q04DX003 (ip), vehicle: saline",162 % of control
same,T/C,"endpoint: mean survival time, dose: 5.0 mg/kg/injection, schedule: Q01DX001 (ip), vehicle: saline",123 % of control
same,T/C,"endpoint: mean survival time, dose: 6.7 mg/kg/injection, schedule: Q04DX003 (ip), vehicle: saline",171 % of control
same,T/C,"endpoint: mean survival time, dose: 7.0 mg/kg/injection, schedule: Q01DX001 (ip), vehicle: saline",156 % of control
same,T/C,"endpoint: mean survival time, dose: 7.0 mg/kg/injection, schedule: Q01DX009 (ip), vehicle: saline",106 % of control
same,T/C,"endpoint: mean survival time, dose: 7.0 mg/kg/injection, schedule: Q04DX003 (ip), vehicle: saline",190 % of control
same,T/C,"endpoint: mean survival time, dose: 8.0 mg/kg/injection, schedule: Q01DX001 (ip), vehicle: saline",155 % of control and 156 % of control
same,T/C,"endpoint: mean survival time, dose: 8.0 mg/kg/injection, schedule: Q01DX009 (ip), vehicle: saline",96 % of control and 97 % of control
same,T/C,"endpoint: mean survival time, dose: 8.0 mg/kg/injection, schedule: Q01DX009 (sc), vehicle: saline",105 % of control
same,T/C,"endpoint: mean survival time, dose: 8.0 mg/kg/injection, schedule: Q04DX003 (ip), vehicle: saline",189 % of control and 446 % of control
same,T/C,"endpoint: mean survival time, dose: 8.0 mg/kg/injection, schedule: Q08DX002 (ip), vehicle: saline",184 % of control
same,T/C,"endpoint: mean survival time, dose: 10.0 mg/kg/injection, schedule: Q04DX003 (ip), vehicle: saline",288 % of control
same,T/C,"endpoint: mean survival time, dose: 10.6 mg/kg/injection, schedule: Q01DX009 (ip), vehicle: saline",100 % of control
same,T/C,"endpoint: mean survival time, dose: 10.6 mg/kg/injection, schedule: Q04DX003 (ip), vehicle: saline",243 % of control
same,T/C,"endpoint: mean survival time, dose: 16.0 mg/kg/injection, schedule: Q01DX001 (ip), vehicle: saline",175 % of control
same,T/C,"endpoint: mean survival time, dose: 16.0 mg/kg/injection, schedule: Q01DX001 (sc), vehicle: saline",174 % of control
same,T/C,"endpoint: mean survival time, dose: 16.0 mg/kg/injection, schedule: Q04DX003 (ip), vehicle: saline",116 % of control
same,T/C,"endpoint: mean survival time, dose: 16.0 mg/kg/injection, schedule: Q08DX002 (ip), vehicle: saline",162 % of control
same,T/C,"endpoint: mean survival time, dose: 20.0 mg/kg/injection, schedule: Q01DX001 (ip), vehicle: saline",92 % of control
same,T/C,"endpoint: median survival time, dose: 2.0 mg/kg/injection, schedule: Q01DX001 (ip), vehicle: saline",119 % of control and 104 % of control
same,T/C,"endpoint: median survival time, dose: 4.0 mg/kg/injection, schedule: Q01DX001 (ip), vehicle: saline",117 % of control
same,T/C,"endpoint: median survival time, dose: 4.0 mg/kg/injection, schedule: Q03DX003 (ip), vehicle: saline",175 % of control and 222 % of control
same,T/C,"endpoint: median survival time, dose: 6.0 mg/kg/injection, schedule: Q03DX003 (ip), vehicle: saline",189 % of control and 266 % of control
same,T/C,"endpoint: median survival time, dose: 8.0 mg/kg/injection, schedule: Q03DX003 (ip), vehicle: saline",206 % of control and 253 % of control
same,T/C,"endpoint: median survival time, dose: 12.0 mg/kg/injection, schedule: Q03DX003 (ip), vehicle: saline",229 % of control
same,T/C,"endpoint: median survival time, dose: 16.0 mg/kg/injection, schedule: Q01DX001 (ip), vehicle: saline",168 % of control and 182 % of control
same,T/C,"endpoint: median survival time, dose: 32.0 mg/kg/injection, schedule: Q01DX001 (ip), vehicle: saline",113 % of control and 104 % of control
same,T/C,"endpoint: median survival time, dose: 64.0 mg/kg/injection, schedule: Q01DX001 (ip), vehicle: saline",117 % of control and 105 % of control
COc1ccc(CC(=O)NCCc2ccc3c(c2)OCO3)cc1,T/C,"endpoint: mean survival time, dose: 100.0 mg/kg/injection, schedule: Q01DX001 (ip), vehicle: saline with Tween-80",91 % of control
same,T/C,"endpoint: mean survival time, dose: 200.0 mg/kg/injection, schedule: Q01DX001 (ip), vehicle: saline with Tween-80",87 % of control
CCOC(NCc1ccc(OC)c(OC)c1)OCC,T/C,"endpoint: mean survival time, dose: 100.0 mg/kg/injection, schedule: Q01DX001 (ip), vehicle: saline",98 % of control
same,T/C,"endpoint: mean survival time, dose: 200.0 mg/kg/injection, schedule: Q01DX001 (ip), vehicle: saline",98 % of control
OC(CC1(O)C(F)(F)C(F)(F)C1(F)F)c1ccccc1 (centres undefined),T/C,[1],96 % of control
same,T/C,[2],92 % of control
same,T/C,[3],90 % of control
COC(=O)C1CCCCC1C(=O)OC (centres undefined),T/C,[4],97 % of control
same,T/C,[1],104 % of control
same,T/C,[5],97 % of control
same,T/C,[2],98 % of control
same,T/C,"endpoint: mean survival time, dose: 400.0 mg/kg/injection, schedule: Q04DX002 (ip), vehicle: saline with Tween-80",101 % of control
CCCCCCCCCCCCCC1CCCC(C)N1 (centres undefined),T/C,[6],89 % of control and 94 % of control
same,T/C,[4],93 % of control and 94 % of control
same,T/C,[5],101 % of control
CC1CNC(=S)O1 (centres undefined),T/C,"endpoint: mean survival time, dose: 25.0 mg/kg/injection, schedule: Q01DX009 (ip), vehicle: saline with Tween-80",102 % of control
same,T/C,"endpoint: mean survival time, dose: 50.0 mg/kg/injection, schedule: Q01DX009 (ip), vehicle: saline with Tween-80",100 % of control
same,T/C,[7],97 % of control and 103 % of control
same,T/C,[1],100 % of control
same,T/C,[8],97 % of control and 95 % of control
same,T/C,[2],97 % of control
same,T/C,[9],97 % of control and 106 % of control
same,T/C,[3],103 % of control
O=C(CCC1CC=CCC1)c1ccccc1 (centres undefined),T/C,"endpoint: mean survival time, dose: 25.0 mg/kg/injection, schedule: Q04DX002 (ip), vehicle: saline with Tween-80",111 % of control
same,T/C,[6],96 % of control
same,T/C,[4],90 % of control
same,T/C,[5],93 % of control
CCOC(=O)C1=NN(c2ccccc2)C(=O)C1,T/C,[7],94 % of control
same,T/C,[8],94 % of control
same,T/C,[9],92 % of control
CCOC(=O)C=C1CCN(C)CC1,T/C,"endpoint: mean survival time, dose: 50.0 mg/kg/injection, schedule: Q04DX003 (ip), vehicle: saline",94 % of control
same,T/C,"endpoint: mean survival time, dose: 100.0 mg/kg/injection, schedule: Q04DX003 (ip), vehicle: saline",97 % of control
same,T/C,"endpoint: mean survival time, dose: 200.0 mg/kg/injection, schedule: Q04DX003 (ip), vehicle: saline",97 % of control

# From PubChem BioAssay AID256 (DTP/NCI, 2004)
